Experimental findings from ChEMBL document CHEMBL4732177 (J Med Chem, 2021) are described below.

For orientation: pKi means −log10 of the Ki, conventionally taken in molar units.

Experiment [1] deals with Neurotensin receptor type 2 (Homo sapiens, UniProt O95665). Nature of the experiment: Displacement of [125I]Tyr3-neurotensin from human recombinant NTS2 stably expressed in human 1321N1 cell membranes incubated for 60 mins by gamma counter analysis. Also noted: species or system Cell membrane. A general note: In a radioligand displacement assay an active substance lowers the binding of a labelled ligand.
Chain of Neurotensin receptor type 2 (O95665 whole entry): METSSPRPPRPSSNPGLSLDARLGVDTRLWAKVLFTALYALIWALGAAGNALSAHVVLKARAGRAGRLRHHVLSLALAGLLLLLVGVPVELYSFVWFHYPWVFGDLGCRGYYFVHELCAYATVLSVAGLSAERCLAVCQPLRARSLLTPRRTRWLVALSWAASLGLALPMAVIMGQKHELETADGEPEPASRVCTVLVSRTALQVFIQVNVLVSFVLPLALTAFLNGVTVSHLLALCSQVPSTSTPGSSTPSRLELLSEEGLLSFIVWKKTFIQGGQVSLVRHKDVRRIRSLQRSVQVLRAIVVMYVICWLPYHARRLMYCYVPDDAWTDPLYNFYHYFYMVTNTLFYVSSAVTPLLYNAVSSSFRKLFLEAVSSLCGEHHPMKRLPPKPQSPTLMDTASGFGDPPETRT

Experiment [2] has as its target Neurotensin receptor type 1 (Homo sapiens, UniProt P30989). Nature of the experiment: Displacement of [125I]Tyr3-neurotensin from human recombinant NTS1 stably expressed in CHO-K1 cell membranes incubated for 60 mins by gamma counter analysis. Also noted: species or system Cell membrane.

pKi: −log10 of the molar value. Bridge positions count the residues as written; N and C are the ends. Square brackets hold non-standard residues; d marks the D form. Peptide text beside a SMILES is read from it. AllylGly = C=CC[C@H](N)C(=O)O

Chain of Neurotensin receptor type 1 (P30989 whole entry): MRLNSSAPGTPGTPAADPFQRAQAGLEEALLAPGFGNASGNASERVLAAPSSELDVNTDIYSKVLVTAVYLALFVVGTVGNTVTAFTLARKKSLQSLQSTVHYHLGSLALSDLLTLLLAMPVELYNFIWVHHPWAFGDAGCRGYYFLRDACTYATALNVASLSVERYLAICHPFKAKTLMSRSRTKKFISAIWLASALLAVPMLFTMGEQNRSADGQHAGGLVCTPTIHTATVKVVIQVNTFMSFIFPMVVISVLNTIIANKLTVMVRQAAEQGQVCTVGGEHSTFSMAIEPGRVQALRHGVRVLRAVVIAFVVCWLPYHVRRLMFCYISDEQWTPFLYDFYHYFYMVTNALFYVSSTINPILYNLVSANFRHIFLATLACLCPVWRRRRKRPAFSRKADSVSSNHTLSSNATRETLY

As to `CC[C@H](C)[C@H](NC(=O)[C@H](Cc1ccc(O)cc1)NC(=O)[C@@H]1CCCN1C(=O)[C@H](CCCNC(=N)N)NC(=O)[C@H](CCCNC(=N)N)NC(=O)[C@@H]1CCCN1C(=O)[C@H](C)NC(=O)[C@H](CC(N)=O)NC(=O)[C@H](CCC(=O)O)NC(=O)[C@H](Cc1ccc(O)cc1)NC(=O)[C@H](CC(C)C)NC(=O)[C@@H]1CCC(=O)N1)C(=O)N[C@@H](CC(C)C)C(=O)O`, the results for the pKi in experiment [1] and in experiment [2] were 8.03 and 8.22, respectively.
On the same counts, the results for `CC[C@H](C)[C@H](NC(=O)[C@H](Cc1ccc(O)cc1)NC(=O)[C@H](C)NC(=O)[C@H](CCCNC(=N)N)NC(=O)[C@H](CCCNC(=N)N)NC(=O)[C@@H]1CCCN1C(=O)[C@H](CCCCN)NC(=O)[C@H](CC(N)=O)NC(=O)[C@H](CCC(=O)O)NC(=O)[C@H](Cc1ccc(O)cc1)NC(=O)[C@H](CC(C)C)NC(=O)[C@@H]1CCC(=O)N1)C(=O)N[C@@H](CC(C)C)C(=O)O` are 7.80 and 6.79.
The like results for `CC[C@H](C)[C@H](NC(=O)[C@H](Cc1ccc(O)cc1)NC(=O)[C@@H]1CCCN1C(=O)[C@H](CCCNC(=N)N)NC(=O)[C@H](CCCNC(=N)N)NC(=O)[C@H](C)NC(=O)[C@H](CCCCN)NC(=O)[C@H](CC(N)=O)NC(=O)[C@H](CCC(=O)O)NC(=O)[C@H](Cc1ccc(O)cc1)NC(=O)[C@H](CC(C)C)NC(=O)[C@@H]1CCC(=O)N1)C(=O)N[C@@H](CC(C)C)C(=O)O` were, in that order, 8.34 and 8.54.
As for `CC[C@H](C)[C@H](NC(=O)[C@H](Cc1ccc(O)cc1)NC(=O)[C@@H]1CCCN1C(=O)[C@@H](C)NC(=O)[C@H](CCCN=C(N)N)NC(=O)[C@@H]1CCCN1C(=O)[C@H](CCCCN)NC(=O)[C@H](CC(N)=O)NC(=O)[C@H](CCC(=O)O)NC(=O)[C@H](Cc1ccc(O)cc1)NC(=O)[C@H](CC(C)C)NC(=O)[C@@H]1CCC(=O)N1)C(=O)N[C@@H](CC(C)C)C(=O)O`, in experiment [2], the pKi is 6.76.
Consider `CC[C@@H](C)[C@H](NC(=O)[C@H](Cc1ccc(O)cc1)NC(=O)[C@@H]1C/C=C\C[C@H](N)C(=O)N[C@@H](CCCCN)C(=O)N[C@@H](CCCCN)C(=O)N1)C(=O)N[C@@H](CC(C)C)C(=O)O`, for which the pKi in experiment [1] and in experiment [2] was less than 5.00 in each case.
Take `CC[C@H](C)[C@H](NC(=O)[C@H](Cc1ccc(O)cc1)NC(=O)[C@@H]1CCCN1C(=O)[C@H](CCCNC(=N)N)NC(=O)[C@H](CCCNC(=N)N)NC(=O)[C@@H]1CCCN1C(=O)[C@H](CCCCN)NC(=O)[C@H](CC(N)=O)NC(=O)[C@H](CCC(=O)O)NC(=O)[C@H](Cc1ccc(O)cc1)NC(=O)[C@H](CC(C)C)NC(=O)[C@@H]1CCC(=O)N1)C(=O)N[C@@H](C)C(=O)O`: the figures for the pKi in experiment [1] and in experiment [2] were 6.18 and less than 5.00, respectively.
On the same counts, the results for `CC[C@H](C)[C@H](NC(=O)[C@H](Cc1ccc(O)cc1)NC(=O)[C@@H]1CCCN1C(=O)[C@H](CCCNC(=N)N)NC(=O)[C@H](CCCNC(=N)N)NC(=O)[C@@H]1CCCN1C(=O)[C@H](CCCCN)NC(=O)[C@H](C)NC(=O)[C@H](CCC(=O)O)NC(=O)[C@H](Cc1ccc(O)cc1)NC(=O)[C@H](CC(C)C)NC(=O)[C@@H]1CCC(=O)N1)C(=O)N[C@@H](CC(C)C)C(=O)O` are 8.06 and 8.62.
On the same counts, the results for `CC(C)C[C@H](NC(=O)[C@H](Cc1ccc(O)cc1)NC(=O)[C@@H]1CCCC[C@H](N)C(=O)N[C@@H](CCCCN)C(=O)N[C@@H](CCCCN)C(=O)N1)C(=O)O` are 7.05 and less than 4.00.
On the same counts, the results for `CC(C)C[C@H](NC(=O)[C@H](Cc1ccc(O)cc1)NC(=O)[C@@H]1C/C=C\C[C@@H](N)C(=O)N[C@@H](CCCCN)C(=O)N[C@@H](CCCCN)C(=O)N1)C(=O)O` are 7.00 and less than 4.00.
As for `CC[C@H](C)[C@H](NC(=O)[C@H](C)NC(=O)[C@@H]1CCCN1C(=O)[C@H](CCCN=C(N)N)NC(=O)[C@H](CCCN=C(N)N)NC(=O)[C@@H]1CCCN1C(=O)[C@H](CCCCN)NC(=O)[C@H](CC(N)=O)NC(=O)[C@H](CCC(=O)O)NC(=O)[C@H](Cc1ccc(O)cc1)NC(=O)[C@H](CC(C)C)NC(=O)[C@@H]1CCC(=O)N1)C(=O)N[C@@H](CC(C)C)C(=O)O`, the pKi is 6.23 in experiment [1] and less than 5.00 in experiment [2].
With `CC(C)C[C@H](NC(=O)[C@H](Cc1ccc(O)cc1)NC(=O)[C@H]1C/C=C\C[C@H](N)C(=O)N[C@@H](CCCCN)C(=O)N[C@@H](CCCCN)C(=O)N2CCC[C@H]2C(=O)N1)C(=O)O`, the results for the pKi in experiment [1] and in experiment [2] were 5.60 and less than 4.00, respectively.
On the same counts, the results for `CC[C@H](C)[C@H](NC(=O)[C@H](Cc1ccc(O)cc1)NC(=O)[C@@H]1CCCN1C(=O)[C@H](CCCNC(=N)N)NC(=O)[C@H](CCCNC(=N)N)NC(=O)[C@@H]1CCCN1C(=O)[C@H](CCCCN)NC(=O)[C@H](CC(N)=O)NC(=O)[C@H](C)NC(=O)[C@H](Cc1ccc(O)cc1)NC(=O)[C@H](CC(C)C)NC(=O)[C@@H]1CCC(=O)N1)C(=O)N[C@@H](CC(C)C)C(=O)O` are 8.57 and 8.74.
On to `CC[C@H](C)[C@H](NC(=O)[C@H](Cc1ccc(O)cc1)NC(=O)[C@@H]1CCCN1C(=O)[C@H](C)NC(=O)[C@H](CCCN=C(N)N)NC(=O)[C@@H]1CCCN1C(=O)[C@H](CCCCN)NC(=O)[C@H](CC(N)=O)NC(=O)[C@H](CCC(=O)O)NC(=O)[C@H](Cc1ccc(O)cc1)NC(=O)[C@H](CC(C)C)NC(=O)[C@@H]1CCC(=O)N1)C(=O)N[C@@H](CC(C)C)C(=O)O`, for which, in experiment [1], the pKi was 8.00.
Take `CC[C@H](C)[C@H](NC(=O)[C@H](Cc1ccc(O)cc1)NC(=O)[C@@H]1CCCN1C(=O)[C@H](CCCNC(=N)N)NC(=O)[C@H](CCCNC(=N)N)NC(=O)[C@@H]1CCCN1C(=O)[C@H](CCCCN)NC(=O)[C@H](CC(N)=O)NC(=O)[C@H](CCC(=O)O)NC(=O)[C@H](Cc1ccc(O)cc1)NC(=O)[C@H](C)NC(=O)[C@@H]1CCC(=O)N1)C(=O)N[C@@H](CC(C)C)C(=O)O`: the pKi was 8.17 in experiment [1] and 8.62 in experiment [2].
The like results for `CC[C@H](C)[C@H](NC(=O)[C@H](Cc1ccc(O)cc1)NC(=O)[C@H](CCCCN)NC(=O)[C@@H]1C/C=C\C[C@H](N)C(=O)N[C@@H](CCCCN)C(=O)N1)C(=O)N[C@@H](CC(C)C)C(=O)O` (H-[AllylGly]K[AllylGly]KYIL-OH; staple (Z) 1-3) were, in that order, less than 5.00 and less than 4.00.
The like results for `CC(C)C[C@H](NC(=O)[C@H](Cc1ccc(O)cc1)NC(=O)[C@H]1C/C=C\C[C@@H](N)C(=O)N[C@@H](CCCCN)C(=O)N[C@@H](CCCCN)C(=O)N1)C(=O)O` were, in that order, 5.66 and less than 4.00.
As for `CC(C)C[C@H](NC(=O)[C@H](Cc1ccc(O)cc1)NC(=O)[C@H]1C/C=C\C[C@H](N)C(=O)N[C@@H](CCCCN)C(=O)N[C@@H](CCCCN)C(=O)N1)C(=O)O`, the pKi in experiment [1] is 5.96; in experiment [2], less than 4.00.
Take `CC[C@@H](C)[C@H](NC(=O)[C@@H]1C/C=C\C[C@H](N)C(=O)N[C@@H](CCCCN)C(=O)N[C@@H](CCCCN)C(=O)N[C@@H](Cc2ccc(O)cc2)C(=O)N1)C(=O)N[C@@H](CC(C)C)C(=O)O`: the pKi in experiment [1] was 5.89; in experiment [2], less than 5.00.
The like results for `CC[C@H](C)[C@H](NC(=O)[C@H](Cc1ccc(O)cc1)NC(=O)[C@@H]1CCCN1C(=O)[C@H](CCCNC(=N)N)NC(=O)[C@@H](N)CCCNC(=N)N)C(=O)O` were, in that order, 6.21 and less than 4.00.
The like results for `CC[C@H](C)[C@H](NC(=O)[C@H](Cc1ccc(O)cc1)NC(=O)[C@@H]1CCCN1C(=O)[C@H](CCCNC(=N)N)NC(=O)[C@H](C)NC(=O)[C@@H]1CCCN1C(=O)[C@H](CCCCN)NC(=O)[C@H](CC(N)=O)NC(=O)[C@H](CCC(=O)O)NC(=O)[C@H](Cc1ccc(O)cc1)NC(=O)[C@H](CC(C)C)NC(=O)[C@@H]1CCC(=O)N1)C(=O)N[C@@H](CC(C)C)C(=O)O` were, in that order, 7.02 and 7.12.
The like results for `CC[C@H](C)[C@H](NC(=O)[C@H](Cc1ccc(O)cc1)NC(=O)[C@@H]1CCCN1C(=O)[C@H](CCCNC(=N)N)NC(=O)[C@H](CCCNC(=N)N)NC(=O)[C@@H]1CCCN1C(=O)[C@H](CCCCN)NC(=O)[C@H](CC(N)=O)NC(=O)[C@H](CCC(=O)O)NC(=O)[C@H](Cc1ccc(O)cc1)NC(=O)[C@H](CC(C)C)NC(=O)[C@H](C)N)C(=O)N[C@@H](CC(C)C)C(=O)O` were, in that order, 8.06 and 8.70.
Turning to `CC[C@@H](C)[C@H](NC(=O)[C@H](CC(C)C)NC(=O)[C@H](Cc1ccc(O)cc1)NC(=O)[C@@H]1C/C=C\C[C@H](N)C(=O)N[C@@H](CCCCN)C(=O)N[C@@H](CCCCN)C(=O)N1)C(=O)O`, the values for the pKi in experiment [1] and in experiment [2] were less than 5.00 and less than 4.00, respectively.
The like results for `CC(C)C[C@H](NC(=O)[C@H](Cc1ccc(O)cc1)NC(=O)[C@H]1CCCN1C(=O)[C@@H]1C/C=C\C[C@H](N)C(=O)N[C@@H](CCCCN)C(=O)N[C@@H](CCCCN)C(=O)N1)C(=O)O` were, in that order, 6.70 and less than 4.00.
The like results for `CC[C@@H](C)[C@H](NC(=O)[C@H](Cc1ccc(O)cc1)NC(=O)[C@@H]1C/C=C\C[C@H](N)C(=O)N[C@@H](CCCCN)C(=O)N[C@@H](CCCCN)C(=O)N1)C(=O)O` were, in that order, less than 5.00 and less than 4.00.
On the same counts, the results for `CC(C)C[C@H](NC(=O)[C@H](Cc1ccc(O)cc1)NC(=O)[C@@H]1CSSC[C@H](N)C(=O)N[C@@H](CCCCN)C(=O)N[C@@H](CCCCN)C(=O)N1)C(=O)O` (H-CKKCYL-OH; disulfide 1-4) are 5.82 and less than 4.00.
As for `CC[C@@H](C)[C@H](NC(=O)[C@H](Cc1ccc(O)cc1)NC(=O)[C@@H]1C/C=C\C[C@H](NC(=O)[C@@H](N)CCCCN)C(=O)N[C@@H](CCCCN)C(=O)N1)C(=O)N[C@@H](CC(C)C)C(=O)O`, the pKi in experiment [1] is less than 5.00; in experiment [2], less than 4.00.
On the same counts, the results for H-RRPYL-OH are 6.41 and less than 4.00.
The like results for `CC[C@H](C)[C@H](NC(=O)[C@H](Cc1ccc(O)cc1)NC(=O)[C@@H]1CCCN1C(=O)[C@H](CCCNC(=N)N)NC(=O)[C@H](CCCNC(=N)N)NC(=O)[C@@H]1CCCN1C(=O)[C@H](CCCCN)NC(=O)[C@H](CC(N)=O)NC(=O)[C@H](CCC(=O)O)NC(=O)[C@H](C)NC(=O)[C@H](CC(C)C)NC(=O)[C@@H]1CCC(=O)N1)C(=O)N[C@@H](CC(C)C)C(=O)O` were, in that order, 8.06 and 8.55.
